Experiment [1] concerns the target T1, Prostaglandin G/H synthase 1 (Rattus norvegicus, UniProt Q63921).
T1 sequence (Q63921 whole entry): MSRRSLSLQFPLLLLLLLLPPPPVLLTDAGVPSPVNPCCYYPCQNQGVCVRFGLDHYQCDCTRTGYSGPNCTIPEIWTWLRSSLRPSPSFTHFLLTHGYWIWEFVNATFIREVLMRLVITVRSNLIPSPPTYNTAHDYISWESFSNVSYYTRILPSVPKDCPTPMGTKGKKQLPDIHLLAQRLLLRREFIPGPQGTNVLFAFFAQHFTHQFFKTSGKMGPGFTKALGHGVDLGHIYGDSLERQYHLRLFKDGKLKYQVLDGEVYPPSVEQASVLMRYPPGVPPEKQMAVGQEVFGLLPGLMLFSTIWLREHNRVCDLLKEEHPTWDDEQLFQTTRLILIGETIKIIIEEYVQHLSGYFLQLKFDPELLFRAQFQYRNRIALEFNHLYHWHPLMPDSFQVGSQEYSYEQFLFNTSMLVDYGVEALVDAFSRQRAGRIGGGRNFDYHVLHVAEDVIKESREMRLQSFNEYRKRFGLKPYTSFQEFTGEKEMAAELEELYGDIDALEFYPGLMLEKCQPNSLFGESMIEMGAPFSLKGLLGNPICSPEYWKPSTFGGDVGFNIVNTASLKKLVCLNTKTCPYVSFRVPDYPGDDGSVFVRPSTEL
The class given is functional.

The target in experiment [2] is T2, Muscarinic acetylcholine receptor M2 (Homo sapiens, UniProt P08172).
T2 sequence (P08172 whole entry): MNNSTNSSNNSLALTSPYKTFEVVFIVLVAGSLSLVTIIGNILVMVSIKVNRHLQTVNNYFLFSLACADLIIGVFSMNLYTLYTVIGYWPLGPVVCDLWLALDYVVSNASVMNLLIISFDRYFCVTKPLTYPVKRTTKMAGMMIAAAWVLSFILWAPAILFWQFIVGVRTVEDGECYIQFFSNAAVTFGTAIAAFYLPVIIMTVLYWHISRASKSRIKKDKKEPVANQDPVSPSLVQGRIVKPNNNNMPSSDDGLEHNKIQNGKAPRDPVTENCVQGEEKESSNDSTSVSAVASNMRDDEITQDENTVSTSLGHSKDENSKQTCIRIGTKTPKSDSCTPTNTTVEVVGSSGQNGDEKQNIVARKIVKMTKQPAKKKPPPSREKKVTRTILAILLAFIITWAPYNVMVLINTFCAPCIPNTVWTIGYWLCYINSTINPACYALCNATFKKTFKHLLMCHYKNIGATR
The experiment is classed as functional, cell-based.

Experiment [3] concerns the target Sodium-dependent noradrenaline transporter (Homo sapiens, UniProt P23975).
A further experiment addresses T3, Estrogen receptor (Homo sapiens, UniProt P03372).
T3 sequence (P03372 whole entry): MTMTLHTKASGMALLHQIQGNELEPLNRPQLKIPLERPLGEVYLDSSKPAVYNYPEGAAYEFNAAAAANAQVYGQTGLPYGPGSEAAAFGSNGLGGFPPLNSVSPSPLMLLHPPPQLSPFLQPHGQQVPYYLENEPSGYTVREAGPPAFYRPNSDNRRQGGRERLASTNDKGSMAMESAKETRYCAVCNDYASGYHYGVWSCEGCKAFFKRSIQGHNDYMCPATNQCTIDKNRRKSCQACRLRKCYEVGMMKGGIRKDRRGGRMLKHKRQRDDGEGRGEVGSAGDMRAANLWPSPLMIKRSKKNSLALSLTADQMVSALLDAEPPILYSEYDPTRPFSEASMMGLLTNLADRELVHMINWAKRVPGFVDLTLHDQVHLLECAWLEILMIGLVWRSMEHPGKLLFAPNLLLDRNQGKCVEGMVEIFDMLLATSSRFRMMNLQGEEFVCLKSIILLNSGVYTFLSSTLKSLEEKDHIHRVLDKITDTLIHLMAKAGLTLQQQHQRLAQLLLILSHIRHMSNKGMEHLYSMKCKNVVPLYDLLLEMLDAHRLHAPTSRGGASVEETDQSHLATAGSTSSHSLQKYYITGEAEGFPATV

For experiment [4], the target named is Delta-type opioid receptor (Homo sapiens, UniProt P41143).
In experiment [5] the target is T4, D(1A) dopamine receptor (Homo sapiens, UniProt P21728). The experiment is classed as functional, cell-based.
The target in the next experiment is Vasopressin V1a receptor (Homo sapiens, UniProt P37288).
The target in experiment [6] is T5, Alpha-1A adrenergic receptor (Homo sapiens, UniProt P35348).
T5 sequence (P35348 whole entry): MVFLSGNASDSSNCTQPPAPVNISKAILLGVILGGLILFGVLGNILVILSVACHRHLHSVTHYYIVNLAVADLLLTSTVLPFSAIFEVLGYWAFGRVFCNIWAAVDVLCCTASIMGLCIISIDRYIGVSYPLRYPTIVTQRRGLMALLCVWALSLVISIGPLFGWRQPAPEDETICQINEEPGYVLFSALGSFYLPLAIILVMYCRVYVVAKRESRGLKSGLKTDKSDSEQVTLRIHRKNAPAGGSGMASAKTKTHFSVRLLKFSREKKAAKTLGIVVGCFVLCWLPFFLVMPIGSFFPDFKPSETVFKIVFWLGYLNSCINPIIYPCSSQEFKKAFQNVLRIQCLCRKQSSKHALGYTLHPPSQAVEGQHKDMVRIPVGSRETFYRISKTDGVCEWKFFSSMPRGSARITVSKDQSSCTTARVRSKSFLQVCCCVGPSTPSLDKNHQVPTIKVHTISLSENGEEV
The experiment is classed as functional, cell-based.

For experiment [7], the target named is T4, D(1A) dopamine receptor.
The target in a further experiment is Mu-type opioid receptor (Homo sapiens, UniProt P35372).
Experiment [8] has as its target Prostaglandin G/H synthase 1 (Homo sapiens, UniProt P23219). The experiment is classed as functional.

One may read the AC50 as the midpoint of the concentration-response curve, whichever way the signal moves. A higher AC50 goes with activity only at high concentration.

Structures are written as SMILES.
Also: assay procedure not described here.

Sequence of Vasopressin V1a receptor (P37288 whole entry): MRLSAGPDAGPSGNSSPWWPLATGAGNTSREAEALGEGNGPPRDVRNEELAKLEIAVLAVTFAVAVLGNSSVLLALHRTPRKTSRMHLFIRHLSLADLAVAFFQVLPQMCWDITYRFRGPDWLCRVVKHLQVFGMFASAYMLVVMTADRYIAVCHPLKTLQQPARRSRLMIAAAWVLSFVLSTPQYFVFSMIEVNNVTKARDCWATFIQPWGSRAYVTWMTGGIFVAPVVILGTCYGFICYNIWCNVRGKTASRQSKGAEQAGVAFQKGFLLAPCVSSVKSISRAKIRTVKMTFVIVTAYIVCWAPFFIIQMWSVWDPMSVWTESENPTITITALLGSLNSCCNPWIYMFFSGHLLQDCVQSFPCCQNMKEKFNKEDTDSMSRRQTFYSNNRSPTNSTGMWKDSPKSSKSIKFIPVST
Sequence of Sodium-dependent noradrenaline transporter (P23975 whole entry): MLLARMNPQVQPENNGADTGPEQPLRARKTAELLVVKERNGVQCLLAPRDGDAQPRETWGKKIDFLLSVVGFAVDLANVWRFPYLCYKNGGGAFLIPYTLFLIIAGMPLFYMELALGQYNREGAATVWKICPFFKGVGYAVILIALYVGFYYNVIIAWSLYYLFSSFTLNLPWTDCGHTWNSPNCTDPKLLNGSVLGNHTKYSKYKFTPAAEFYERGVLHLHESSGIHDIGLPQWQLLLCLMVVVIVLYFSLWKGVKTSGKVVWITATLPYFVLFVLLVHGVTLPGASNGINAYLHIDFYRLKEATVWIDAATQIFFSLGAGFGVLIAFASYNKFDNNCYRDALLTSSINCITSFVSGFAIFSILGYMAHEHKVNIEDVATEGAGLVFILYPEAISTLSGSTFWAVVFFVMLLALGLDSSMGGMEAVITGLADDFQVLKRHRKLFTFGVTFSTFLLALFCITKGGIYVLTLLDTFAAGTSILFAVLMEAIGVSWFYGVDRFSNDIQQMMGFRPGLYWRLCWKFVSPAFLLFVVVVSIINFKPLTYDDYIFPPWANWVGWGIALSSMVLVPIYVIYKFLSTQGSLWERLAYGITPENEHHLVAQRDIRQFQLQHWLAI
T4 sequence (P21728 whole entry): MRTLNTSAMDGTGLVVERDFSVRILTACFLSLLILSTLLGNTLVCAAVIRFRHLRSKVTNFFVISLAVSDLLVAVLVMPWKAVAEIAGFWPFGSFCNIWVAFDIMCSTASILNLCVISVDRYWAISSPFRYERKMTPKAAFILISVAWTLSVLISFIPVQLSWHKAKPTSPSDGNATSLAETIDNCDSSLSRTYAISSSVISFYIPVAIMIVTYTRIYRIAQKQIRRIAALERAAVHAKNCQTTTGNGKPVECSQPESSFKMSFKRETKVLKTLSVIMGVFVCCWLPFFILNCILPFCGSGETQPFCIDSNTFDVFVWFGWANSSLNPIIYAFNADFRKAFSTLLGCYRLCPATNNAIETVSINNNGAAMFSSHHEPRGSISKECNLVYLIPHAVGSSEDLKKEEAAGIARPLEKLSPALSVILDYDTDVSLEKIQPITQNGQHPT
Sequence of Delta-type opioid receptor (P41143 whole entry): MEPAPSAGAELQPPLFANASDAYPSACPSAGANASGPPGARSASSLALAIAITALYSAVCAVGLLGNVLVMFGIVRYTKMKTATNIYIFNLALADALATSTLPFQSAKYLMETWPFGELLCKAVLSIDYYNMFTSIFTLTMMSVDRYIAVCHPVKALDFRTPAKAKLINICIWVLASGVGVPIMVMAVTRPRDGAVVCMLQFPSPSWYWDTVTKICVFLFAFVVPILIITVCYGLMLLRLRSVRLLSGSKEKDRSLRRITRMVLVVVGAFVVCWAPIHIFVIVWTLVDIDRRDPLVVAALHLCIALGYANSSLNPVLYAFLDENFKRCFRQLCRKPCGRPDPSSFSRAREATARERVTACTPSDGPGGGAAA
Sequence of Prostaglandin G/H synthase 1 (Homo sapiens, UniProt P23219) (P23219 whole entry): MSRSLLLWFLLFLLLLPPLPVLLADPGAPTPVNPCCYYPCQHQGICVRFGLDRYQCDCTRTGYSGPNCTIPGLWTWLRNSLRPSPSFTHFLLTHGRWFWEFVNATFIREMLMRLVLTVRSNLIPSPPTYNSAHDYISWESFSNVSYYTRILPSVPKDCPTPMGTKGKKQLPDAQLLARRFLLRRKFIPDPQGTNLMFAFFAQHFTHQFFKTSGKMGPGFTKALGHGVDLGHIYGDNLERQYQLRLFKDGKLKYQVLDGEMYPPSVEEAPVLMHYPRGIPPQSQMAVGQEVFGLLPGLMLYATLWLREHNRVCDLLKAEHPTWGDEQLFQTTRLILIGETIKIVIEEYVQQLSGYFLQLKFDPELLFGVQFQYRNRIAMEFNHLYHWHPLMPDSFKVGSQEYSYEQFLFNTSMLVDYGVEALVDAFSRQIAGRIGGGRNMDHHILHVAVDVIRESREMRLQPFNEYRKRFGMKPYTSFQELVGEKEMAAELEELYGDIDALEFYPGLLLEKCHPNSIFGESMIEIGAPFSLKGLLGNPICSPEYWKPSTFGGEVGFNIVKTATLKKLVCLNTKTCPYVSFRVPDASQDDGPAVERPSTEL
Sequence of Mu-type opioid receptor (P35372 whole entry): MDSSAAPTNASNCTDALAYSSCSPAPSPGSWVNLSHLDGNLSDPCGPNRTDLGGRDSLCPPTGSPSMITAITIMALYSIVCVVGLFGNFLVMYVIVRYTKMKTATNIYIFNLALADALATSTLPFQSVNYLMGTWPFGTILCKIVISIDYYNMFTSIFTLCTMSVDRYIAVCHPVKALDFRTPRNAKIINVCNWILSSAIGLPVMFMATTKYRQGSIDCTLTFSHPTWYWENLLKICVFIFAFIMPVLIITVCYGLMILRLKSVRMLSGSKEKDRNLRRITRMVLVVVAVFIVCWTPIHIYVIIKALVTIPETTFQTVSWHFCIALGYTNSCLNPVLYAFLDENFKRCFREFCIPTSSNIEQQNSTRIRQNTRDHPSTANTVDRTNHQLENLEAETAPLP

Consider `C[N+](C)(C)CCOP(=O)([O-])OC[C@H](O)CO`, for which the AC50 (in [1]; in experiment [2]; in [3]; on Estrogen receptor; in experiment [4]; on D(1A) dopamine receptor [5]) was greater than 30 µM in each case.
Take `CN(C)C/C=C/C(=O)Nc1cc2c(Nc3ccc(F)c(Cl)c3)ncnc2cc1O[C@H]1CCOC1` [AFATINIB]: the AC50 (in experiment [1]; in experiment [2]; in experiment [3]; at Estrogen receptor; in [4]; on Vasopressin V1a receptor) was greater than 30 µM throughout. Moreover, the AC50 on D(1A) dopamine receptor [5] is greater than 30 µM.
Regarding `CC1=C(C(=O)OC(C)C)C(c2cccc([N+](=O)[O-])c2)C(C(=O)OC2CN(C(c3ccccc3)c3ccccc3)C2)=C(N)N1` (stereo unspecified) [AZELNIDIPINE], the AC50 in experiment [1] was 16 µM; in experiment [2] it was greater than 30 µM; in experiment [3] it was 5.8 µM; at Estrogen receptor it was greater than 3 µM; in experiment [4] it was greater than 30 µM; on Vasopressin V1a receptor, greater than 30 µM. On D(1A) dopamine receptor [5], this molecule had a half-maximal activity concentration (AC50) greater than 30 µM.
Consider `CNCCc1ccc(OC(=O)C(C)C)c(OC(=O)C(C)C)c1` [IBOPAMINE], for which the AC50 (in experiment [1]; in experiment [2]; in [3]; at Estrogen receptor; in [4]; at Vasopressin V1a receptor) was greater than 30 µM each time. On D(1A) dopamine receptor [5], this molecule gave an AC50 of 0.0442 µM.
As for `CCOC(=O)C1=C(C)NC(C)=C(C(=O)OCC)C1c1ccccc1/C=C/C(=O)OC(C)(C)C` [LACIDIPINE], the AC50 (in [1]; in [2]; in experiment [3]; on Estrogen receptor; in experiment [4]; at D(1A) dopamine receptor [5]) was greater than 30 µM each time.
In the case of `COC(=O)C1=C(C)NC(C)=C(C(=O)OCCN2CCN(C(c3ccccc3)c3ccccc3)CC2)C1c1cccc([N+](=O)[O-])c1` (stereo unspecified) [MANIDIPINE 6300], the AC50 in experiment [1] is 7.4 µM; in [2], greater than 30 µM; in experiment [3], greater than 30 µM; at Estrogen receptor, greater than 1 µM; in experiment [4], greater than 30 µM; at Vasopressin V1a receptor, greater than 30 µM. For the same molecule, the AC50 at D(1A) dopamine receptor [5] is greater than 30 µM.
With `COc1cccc(C(=O)CCN[C@@H](C)[C@H](O)c2ccccc2)c1` [OXYFEDRINE], the AC50 in experiment [6] was greater than 30 µM; at D(1A) dopamine receptor [7] it was 16.4 µM; on Mu-type opioid receptor, 2.7 µM; in experiment [8], greater than 30 µM.
Consider `CC[N+](C)(CC)CCOC(=O)C(O)(c1ccccc1)C1CCCCC1` (stereo unspecified) [OXYPHENONIUM], for which the AC50 (in experiment [6]; on D(1A) dopamine receptor [7]; on Mu-type opioid receptor; in experiment [8]) was greater than 30 µM each time.
Consider `C[C@@H]1C[C@H]2[C@@H]3C[C@H](F)C4=CC(=O)C=C[C@]4(C)[C@H]3[C@@H](O)C[C@]2(C)[C@@]1(O)C(=O)CO` [PARAMETHASONE], for which the AC50 (in experiment [6]; on D(1A) dopamine receptor [7]; at Mu-type opioid receptor; in experiment [8]) was greater than 30 µM each time.
On to `OC[C@H]1O[C@@H](n2cnc3c2NC=NC[C@H]3O)C[C@@H]1O` [PENTOSTATIN], for which the concentration at half-maximal activity (AC50) in experiment [1] was 6.6 µM; in experiment [2] it was greater than 30 µM; in experiment [3] it was greater than 30 µM; at Estrogen receptor, greater than 30 µM; in [4] it was greater than 30 µM; at Vasopressin V1a receptor, greater than 30 µM. In addition, the AC50 at D(1A) dopamine receptor [5] is greater than 30 µM.
In the case of `CCC[C@H](N[C@@H](C)C(=O)N1[C@H](C(=O)O)C[C@@H]2CCCC[C@@H]21)C(=O)OCC` [PERINDOPRIL], the AC50 (in experiment [6]; at D(1A) dopamine receptor [7]; at Mu-type opioid receptor; in experiment [8]) was greater than 30 µM throughout.
In the case of `NNCCc1ccccc1` [PHENELZINE], the AC50 in [6] was 11.5 µM; at D(1A) dopamine receptor [7] it was greater than 30 µM; on Mu-type opioid receptor it was greater than 30 µM; in experiment [8] it was 0.891 µM.
Turning to `N[C@@H](Cc1ccccc1)C(=O)O` [PHENYLALANINE], the AC50 in experiment [6] was greater than 30 µM; at D(1A) dopamine receptor [7], greater than 30 µM; at Mu-type opioid receptor, greater than 30 µM; in experiment [8] it was 28 µM.
Regarding `Cc1cccc(C)c1NC(=O)CC12CCCN1CCC2` [PILSICAINIDE], the AC50 (in [1]; in experiment [2]; in [3]; on Estrogen receptor; in experiment [4]; at Vasopressin V1a receptor) was greater than 30 µM in each case. On D(1A) dopamine receptor [5], this molecule had an AC50 greater than 30 µM.
Turning to `CCCn1cnc2c1c(=O)n(CCCCC(C)=O)c(=O)n2C` [PROPENTOFYLLINE], the AC50 (in [6]; at D(1A) dopamine receptor [7]; on Mu-type opioid receptor; in experiment [8]) was greater than 30 µM throughout.
Regarding `Clc1ccc(C(Cn2ccnc2)OCc2csc3c(Cl)cccc23)c(Cl)c1` (stereo unspecified) [SERTACONAZOLE], the AC50 in experiment [6] was 24.3 µM; at D(1A) dopamine receptor [7], 5.39 µM; at Mu-type opioid receptor, 3.59 µM; in [8], 7.68 µM.
`CC(OCCN1CCCCCC1)(c1ccccc1)c1ccc(Cl)cc1` (stereo unspecified) [SETASTINE]: the AC50 is 28.1 µM in experiment [6], 6.96 µM on D(1A) dopamine receptor [7], 3.66 µM at Mu-type opioid receptor and greater than 30 µM in [8].
Taken in the same sequence, the figures for `COc1cc(C)c2c(Oc3cccc(C(F)(F)F)c3)c(OC)cc(NC(C)CCCN)c2n1` (stereo unspecified) [TAFENOQUINE] were greater than 3 µM, 16.4 µM, 20.6 µM and 9.38 µM.
The matching figures for `CCCSc1nc(N[C@@H]2C[C@H]2c2ccc(F)c(F)c2)c2nnn([C@@H]3C[C@H](OCCO)[C@@H](O)[C@H]3O)c2n1` [TICAGRELOR]: greater than 30 µM, 14.9 µM, greater than 30 µM and greater than 30 µM.
Take `c1ccc2c(SC3=NCCN3)c[nH]c2c1` [TINAZOLINE]: the AC50 in experiment [6] is 0.003 µM; on D(1A) dopamine receptor [7], greater than 30 µM; on Mu-type opioid receptor, greater than 30 µM; in experiment [8], greater than 30 µM.
As to `Cc1ccc(C(=O)C(C)CN2CCCCC2)cc1` (stereo unspecified) [TOLPERISONE], the AC50 (in [6]; at D(1A) dopamine receptor [7]; on Mu-type opioid receptor; in [8]) was greater than 30 µM in each case.

The values are drawn from ChEMBL document CHEMBL5291721, “A preclinical secondary pharmacology resource illuminates target-adverse drug reaction associations of marketed drugs” (Nat Commun, 2023).
